Tests used:
Type in all cases: in vivo, rat
PGE2 = experiment: Mucosal content of PGE2 (radioimmunoassay)
Procedure: A part of fundic mucosa (about 100 mg) was excised for determination of PGE2 synthesis. The samples were weighed, finely minced with scissors for 15 sec, then suspended in 1.0 ml of 10 mM sodium phosphate buffer (pH 7.4). The samples were then incubated in a shaking bath (37°) for 29 min followed by centrifugation (9000 g for 30 sec). The supernatant was frozen and subsequent determination of PGE2 was performed by radioimmunoassay using PGE2 [125I] RIA kit (Dupont/NEN, Boston, Mass., USA).

[1] = system: Aspirin-induced gastric injury; experiment: Aspirin-induced gastric mucosal injury model (ulcer index); conditions: rats, 3 h after aspirin, control 29.8±7.7
Procedure: Male Sprague-Dawley rats weighting 250-300 g were fed a standard laboratory diet and water ad libitum, and kept in cages in a temperature and humidity controlled room with a 12 hour dark-light cycle before and during the experiment. Prior to administration of aspirin, animals were deprived of food for 24 hours but had free access to water. This experimental protocol was approved by the Akita University Animal Care Committee. Aspirin-induced gastric injury was produced by intragastric administration of aspirin (200 mg/kg) and HCl (0.15 N, 8 ml/kg). ATL-146e (2.5 or 5 μg/kg, n=5 in each dose) or vehicle was injected intraperitoneally 30 minutes prior to aspirin administration. The animals were sacrificed by stunning and cervical dislocation 3 hours after aspirin administration and the stomach was removed. Gastric mucosal lesions were measured by two independent observers blinded to the treatment. The ulcer index was calculated as the sum of the lengths of all lesions.

myeloperoxidase (MPO) = experiment: Myeloperoxidase (MPO) concentration in the gastric mucosa after aspirin; conditions: rats, 3 h after aspirin, normal 2.8±0.2, vehicle 13.8±1.2, P<0.001
Procedure: An assay of gastric mucosal myeloperoxidase concentration was applied to quantify the degree of neutrophil infiltration. Three hundred milligrams of scraped mucosa was homogenized for 30 sec with a polytron homogenizer (PT 1200, KInematica AG, Littau, Switzerland) in 1.0 ml of ice-cold 0.5% hexadecyliltrimethylammonium bromide in 50 mM phosphate buffer (pH 6.0). Hexadecyliltrimethylammonium bromide is used to negate the pseudoperoxidase activity of hemoglobin and to solubilize membrane-bound MPO. The homogenate was sonicated (U50 IKA Werke Grm1H and Co. KG, Staufen, Germany) for 10 seconds, freeze-thawed three times and centrifuged for 20 minutes at 18,000 g. The supernatant was taken for determination of the enzyme activity utilizing an ELISA kit (Bioxytech, Oxis International, Inc. Portland, Oreg., USA). The change in absorbance at 405 nm was measured with a spectrophotometer (Microplate reader model 3550, Bio-Rad, Hercules, Calif., USA). The concentration of myeloperoxidase was expressed as nanogram per mg protein measured using Bradford's method.

TNF-α = experiment: Gastric mucosal concentration of TNF-α after aspirin (ELISA); conditions: rats, gastric mucosa, 3 h after aspirin
Procedure: (§1) One hundred milligrams of scraped mucosa was homogenized for 30 sec with a polytron homogenizer (PT 1200, KInematica AG, Littau, Switzerland) in 1.0 ml of ice-cold potassium phosphate buffer (pH 7.4). Following centrifugation at 10,000 g for 10 minutes, aliquots of homogenate supernatants in PBS were obtained by centrifugation (10,000 g for 10 minutes). The total protein was measured by Bradford's method. The concentration of TNF-α and IL-1β in the supernatant of mucosal homogenates was determined by ELISA (R&D systems Inc., Minneapolis, Minn., USA) according to the manufacture's instruction. After color development, optimal density was measured with microplate reader. The concentration of TNF-α and IL-1β were expressed as pictogram/mg protein.

IL-1β = experiment: Gastric mucosal concentration of IL-1β after aspirin (ELISA); conditions: rats, gastric mucosa, 3 h after aspirin
Procedure: as §1

gastric acid secretion = experiment: Gastric secretion, pylorus-ligation method; conditions: rats, 5 μg/kg i.p., 3 h
Procedure: Gastric juice was collected using the pylorus-ligation method. Briefly, rats were fasted for 24 hours, placed in restraint cages, and injected intraperitoneal with 5 μg/kg of ATL-146e. Thirty minutes after injection, pylorus ligation was performed. The stomach was removed 3 hours after pylorus ligation, and the gastric contents were collected. Following centrifugation the acid content of the supernatant was determined by titration with 0.01 mol NaOH to pH 7.0 using pH meter (f50 pH Meter; Beckman, Tokyo, Japan), and used to calculate gastric acid secretion in mEq/3 h.

## CC(=O)Oc1ccccc1C(=O)O [aspirin, acetylsalicylic acid]
PGE2; aspirin 200 mg/kg alone, P<0.05
  reduction of PGE2 concentration vs vehicle-treated rats: 82.3%
PGE2; rats, aspirin 200 mg/kg alone (group C), vehicle-treated 255.3±64.7
  concentration of PGE2 in gastric mucosa: 47.4 ± 5.6 ng/g

## CCNC(=O)C1OC(n2cnc3c(N)nc(C#CCC4CCC(C(=O)OC)CC4)nc32)C(O)C1O (stereo not shown) [ATL-146e, 4-{3-[6-Amino-9-(5-ethylcarbamoyl-3,4-dihydroxy-tetrahydro-furan-2-yl)-9H-purin-2-yl]-prop-2-ynyl}-cyclohexanecarboxylic acid methyl ester]
[1]; 2.5 μg/kg i.p. 30 min before aspirin 200 mg/kg + HCl, P<0.05
  ulcer index (total length of gastric erosions): 7.0±2.34 mm
[1]; 5.0 μg/kg i.p. 30 min before aspirin 200 mg/kg + HCl, P<0.01
  ulcer index (total length of gastric erosions): 3.1±1.42 mm
Myeloperoxidase (MPO); 2.5 μg/kg pretreatment
  MPO concentration in the gastric mucosa: 2.9±0.35 μg/g protein
Myeloperoxidase (MPO); 5 μg/kg pretreatment
  MPO concentration in the gastric mucosa: 2.7±0.14 μg/g protein
TNF-α; 2.5 μg/kg
  reduction of the increase in TNF-α above control levels caused by aspirin: 90.3%
TNF-α; 5 μg/kg
  reduction of the increase in TNF-α above control levels caused by aspirin: 99.7%
IL-1β; 2.5 μg/kg
  reduction of the increase in IL1-β above control levels caused by aspirin: 64.0%
IL-1β; 5 μg/kg
  reduction of the increase in IL1-β above control levels caused by aspirin: 97.2%
Gastric acid secretion; P<0.05
  increase in gastric acid output: threefold
Gastric acid secretion; without compound 114, P<0.05
  gastric acid output: 326 mmolq/3 h
PGE2; rats, 5 μg/kg before aspirin 200 mg/kg, P>0.05 vs. aspirin alone
  effect on the reduction of gastric PGE2 concentration induced by aspirin: did not interfere with the reduction of gastric PGE2 concentration induced by aspirin

Reference: patent US20080027022A1, “METHOD TO TREAT GASTRIC LESIONS” (priority 2006, published 2008)
